What was measured:
[1] = tested on: DRB5; experiment: HLA class II peptide-binding assay (competitive ELISA); set-up: species or system human; conditions: DRB5; competitive ELISA, immunopurified HLA; reference peptide IC50 7 nM; ratio ≤20 high affinity, 20–200 moderate affinity
[2] = tested on: DRB4; experiment: as above; set-up: species or system human; conditions: DRB4; competitive ELISA, immunopurified HLA; reference peptide IC50 8 nM; ratio ≤20 high affinity, 20–200 moderate affinity
[3] = target: DRB1*0301 (Homo sapiens, UniProt P01903+P01911, A100K/A102G/A103R/A169T/F55Y/I96L/K41T/L162R/M171V/P40S/Q125H/Q178H/Q39Y/R42S/S66N/T106N/T262R/W38E/Y61H); experiment: as above; conditions: immunopurified HLA, reference peptide IC50 423 nM, ratio ≤20 high affinity, 20–200 moderate affinity
[4] = target: DRB1*0101 (Homo sapiens, UniProt P01903+P01911, A100R/D57E/F55L/F60I/F76Y/I96L/L162R/M171V/P40L/Q125E/R42F/V115G/Y59C); experiment: as above; conditions: immunopurified HLA, reference peptide IC50 3 nM, ratio ≤20 high affinity, 20–200 moderate affinity
[5] = target: DRB1*1101 (Homo sapiens, UniProt P01903+P01911, A100R/A169T/A87E/I96F/K41T/L162R/M171V/P40S/Q125H/Q178H/Q39Y/Q99D/R42S/S66Y/T262R/V115G/W38E); experiment: as above; conditions: immunopurified HLA, reference peptide IC50 50 nM, ratio ≤20 high affinity, 20–200 moderate affinity
[6] = target: DRB1*0401 (Homo sapiens, UniProt P01903+P01911, A100K/A169T/F76Y/I96L/K127E/L162R/M171V/N62H/P40V/Q125Y/R42H/S133A/S149N/S66Y/V115G/V209L/W38E); experiment: as above; conditions: immunopurified HLA, reference peptide IC50 8 nM, ratio ≤20 high affinity, 20–200 moderate affinity
[7] = target: DRB1*1501 (Homo sapiens, UniProt P01903+P01911); experiment: as above; conditions: immunopurified HLA, reference peptide IC50 775 nM, ratio ≤20 high affinity, 20–200 moderate affinity
[8] = tested on: CD25-depleted PBMCs (CD4+ T cells); experiment: Generation of peptide-specific CD4+ T cell lines with the split-well method (frequency of specific TCLs); type: cell-based, human; conditions: peptides at 2 µM, 10^5 PBMCs per well, mean±SEM, SEM
Experimental: After isolating peripheral-blood mononuclear cells (PBMCs) by Ficoll-Paque Plus density gradient centrifugation (GE Healthcare Biosciences, Uppsala, Sweden), CD4^+CD25high regulatory T cells were depleted with anti-CD25-magnetic beads (Miltenyi Biotec, Bergisch Gladbach, Germany), to enhance the induction of both autoreactive and allergen-reactive CD4^+ T cell responses, as previously described, [34].The CD25-depleted PBMCs were seeded in 96-well U-bottomed plates (Corning Incorporated, Corning, USA; 10^5 PBMCs per well) in the presence of pooled Can f 1 or TL peptides (each peptide at 2 µM, 30 wells per a peptide pool), or the HA peptide (30 wells) in a 150 µl volume of RPMI 1640 culture medium supplemented with 2 mM L-glutamine, 20 µM 2-mercaptoethanol, 1 mM sodium pyruvate, nonessential amino acids, 100 IU/ml penicillin, 100 µg/ml streptomycin, 10 mM HEPES (all from Lonza, Verviers, Belgium) and 5% inactivated human AB serum (Sigma-Aldrich, St. Louis, MO). On day 5, 50 µl of fresh medium supplemented with 10 IU/ml of IL-2 (Strathmann Biotech, Hannover, Germany) was added to the cultures. On day 7, half of the culture medium was replaced without IL-2. On day 10, half of the cells in the cultures were split into daughter plates for testing specificity by stimulating the cells with or without the pooled peptides (each peptide at 2 µM) together with autologous γ-irradiated (3000 rad) PBMCs (5×10^5) as antigen-presenting cells. After an incubation of 72 h, [3H]thymidine was added (1 µCi per well; GE Healthcare, Little Chalfont, UK), and after an additional 16 h, the cells were harvested onto glass fiber filters on day 14 (Wallac, Turku, Finland). Radioactivity was measured by scintillation counting (Wallac Micro Beta 1540) and the results were expressed as counts per minute (CPM). The stimulation indices (SI; CPM in the presence of antigen divided by CPM in the absence of antigen) and CPM differences between stimulated and unstimulated wells (ΔCPM) were determined. On the same day, positive cultures (ΔCPM>2000 and SI>2) were restimulated in 48-well plates with autologous γ-irradiated PBMCs (10^6/well), 2 µM of the peptides and 25 IU/ml of IL-2. On day 28, the established TCLs were propagated once more with peptides, IL-2 and PBMCs. After stimulations, half of the culture medium was replaced with fresh medium supplemented with IL-2 every 2–3 days. The peptide specificity of TCLs was defined as described below.
T cell proliferation assays were set in duplicates in 96-well U-bottomed plates with 2.5×10^4 cultured T cells, 5×10^4 autologous γ-irradiated (3000 rad) PBMCs as APCs, and antigens as indicated. In order to determine the epitope specificity of the established TCLs induced with peptide pools, the T cell lines were tested with each of the three individual peptides in the pool at 10 µM on day 28. Proliferation was measured by radionuclide uptake (see above). […] On day 42, peptide-specific TCLs were tested with individual Can f 1 peptides, as well as their TL homologues, at several concentrations up to 10 µM. The functional T cell receptor (TCR) avidities of the TCLs for a peptide were assessed by determining effective concentration 50 (EC50) values (i.e., the concentration of a peptide needed to induce a half-maximal proliferative response) from the dose-response curves of individual TCLs.

[9] = tested on: DRB3; experiment: HLA class II peptide-binding assay (competitive ELISA); set-up: species or system human; conditions: DRB3; competitive ELISA, immunopurified HLA; reference peptide IC50 60 nM; ratio ≤20 high affinity, 20–200 moderate affinity
[10] = target: DRB1*1301 (Homo sapiens, UniProt P01903+P01911, A100E/A169T/K41T/L162R/M171V/P40S/Q125H/Q178H/Q39Y/Q99D/R42S/S66N/T262R/W38E/Y61H); experiment: as above; conditions: immunopurified HLA, reference peptide IC50 208 nM, ratio ≤20 high affinity, 20–200 moderate affinity
[11] = target: DRB1*0701 (Homo sapiens, UniProt P01903+P01911, A100R/A102G/A103Q/D57E/D86V/E43K/F76Y/K127E/L162R/M171V/P40G/Q125H/Q99D/R33Q/R42Y/R54Q/S133A/S66F/T210M/V115G/Y107V/Y59L/Y89S); experiment: as above; conditions: immunopurified HLA, reference peptide IC50 5 nM, ratio ≤20 high affinity, 20–200 moderate affinity

Sequence | relative binding ratio (IC50 of the test peptide divided by IC50 of the reference peptide) [1] | relative binding ratio (IC50 of the test peptide divided by IC50 of the reference peptide) [2] | relative binding ratio (IC50 of the test peptide divided by IC50 of the reference peptide) [3] | relative binding ratio (IC50 of the test peptide divided by IC50 of the reference peptide) [4] | relative binding ratio (IC50 of the test peptide divided by IC50 of the reference peptide) [5] | relative binding ratio (IC50 of the test peptide divided by IC50 of the reference peptide) [6] | relative binding ratio (IC50 of the test peptide divided by IC50 of the reference peptide) [7] | positive specific TCLs out of 30 replicate wells per subject ([8]; allergic subjects) [%] | positive specific TCLs out of 30 replicate wells per subject ([8]; nonallergic subjects) [%] | relative binding ratio (IC50 of the test peptide divided by IC50 of the reference peptide) [9] | relative binding ratio (IC50 of the test peptide divided by IC50 of the reference peptide) [10] | relative binding ratio (IC50 of the test peptide divided by IC50 of the reference peptide) [11]
PGKYTAYEGQRVVFIQ [pC4, Can f 1 peptide p73–88] | 14 | 722 | 13 | 1 | 133 | 82 | 0.4 | 5.0±1.15 | 4.2±1.61 | 61 | 56 | 1
LEAKVTMLISGRCQEVK [pTL3, Tear lipocalin peptide p49–65] | 4 | 312 | 0.4 | 2 | 5 | 82 | 1 | 1.89±0.57 | 4.2±0.68 | 8 | 3 | 0.2
ALEDFEKAAGARGLST [pTL8, Tear lipocalin peptide p126–141] | 22 | > 1 179 | > 236 | 3 | > 200 | 85 | > 13 | – | – | > 167 | > 481 | 1 440
GTWYLKAMTVDREFPE [pTL1, Tear lipocalin peptide p15–30] | 2 | 1 | 10 | 82 | 67 | 1 | 6 | – | – | 84 | 24 | 47
GKHVAYIIRSHVKDHY [pTL5, Tear lipocalin peptide p82–97] | 1 | > 1 179 | 7 | 209 | 0.3 | 120 | > 13 | – | – | > 167 | 5 | 447
MNLESVTPMTLTTLEGGNL [pTL2, Tear lipocalin peptide p31–49] | 645 | > 1 179 | > 236 | 15 | > 200 | 436 | > 13 | – | – | > 167 | > 481 | 55
ESILIPRQSETCSPGSD [pTL9, Tear lipocalin peptide p142–158] | > 1 443 | > 1 179 | > 236 | 569 | > 200 | > 1 260 | > 13 | – | – | > 167 | > 481 | > 1 874

Source: paper PMC4038554, “Human CD4^+ T Cell Responses to the Dog Major Allergen Can f 1 and Its Human Homologue Tear Lipocalin Resemble Each Other” (PLoS ONE, 2014)
